According to PMC11227536, “Modulation of the Meisenheimer complex metabolism of nitro-benzothiazinones by targeted C-6 substitution” (Communications Chemistry, 2024):

Assays:
[1] = test system: HUVEC; assay: Proliferation assay; type: cell-based; conditions: Homo sapiens, 72 h, n = 4
Experimental: (§1) Supplementary Method 5: Biological Assays […]
(§2) 2. Proliferation and cytotoxicity assay
(§3) Cells and culture conditions
(§4) The following cell lines and media were used:
(§5) Cell line Cell culture medium
(§6) Cells were grown in the appropriate cell culture medium supplemented with 10 mL/L ultraglutamine 1 […]
(§7) heat inactivated fetal bovine serum (GIBCO Life Technologies 10270-106) at 37 °C in 5% CO 2 in high density polyethylene flasks (NUNC 156340).
(§8) To decide if the compounds have an antiproliferative and/or a cytotoxic effect on human cells, cell death and retardation of cell proliferation were assessed. Under our experimental conditions, the optical density measured from the CellTiter-Blue® reagent and methylene blue assay is proportional to the […]
(§9) The test substances were dissolved in DMSO and further diluted in the cell culture medium. The adherent cells were harvested at the logarithmic growth phase after soft trypsinization using 0.25% trypsin in PBS containing 0.02% EDTA (Biochrom KG L2163). For each experiment, approximately 10,000 cells were seeded with 0.1 mL culture medium per well of the 96-well microplates (HUVEC: flat bottomed NUNC 167008, K-562: round bottomed NUNC 163320). To test the antiproliferative […]
effect of test compounds on HUVEC and K-562, the cells were incubated for 72 hours in plates prepared with control and different dilutions of test substances. […]
of proliferation compared to the untreated control. […]
(§10) Cells were incubated with dilutions of the test substances in microplates for 72 hours at 37 °C in a humidified atmosphere and 5% CO 2. […]
(§11) cytotoxicity and the inhibition of cell proliferation. The number of viable cells was determined subsequent to staining with CellTiter-Blue® reagent or methylene blue. […]
(§12) HUVEC and HeLa cells: The adherent HUVEC and HeLa cells were fixed by glutaraldehyde (MERCK […]
(§13) gently washing, the stain was eluted by adding 0.2 mL of hydrochloric acid (0.33 M) to each well. The optical densities were measured at 660 nm (methylene blue) in SUNRISE microplate reader (TECAN).
(§14) General remarks: Signals from the methylene blue and CellTiter-Blue® reagent are proportional to the number of viable cells. A repeat determination has been conducted in all experiments, four replicates were assayed. The calculations of the different values of GI 50 and CC 50 were performed with the software

[2] = Cytotoxicity assay; type: cell-based; conditions: human, n = 4
Experimental: as §1, §2, §3, §4, §5, §6, §7, §8
as §9, with “163320).” for “163320). To test the antiproliferative”
For the cytotoxicity assay, HeLa cells were preincubated for 48 hours without the test substances. To test the cytotoxic effect on HeLa, dilutions of the compounds were carried out carefully on the subconfluent monolayers of HeLa cells after the preincubation time. After incubation time, the cytolytic effect of compounds was analysed in comparison to the negative control. The 50% cytotoxic concentration (CC 50 ) was defined as the test compound concentration required for destruction of the cell monolayer by 50% compared to untreated control.
as §10, §11, §12, §13, §14

Structure (SMILES)	GI50 [1]	CC50 at 72 h [2]
COC(=O)c1cc([N+](=O)[O-])c2sc(N3CCC4(CC3)OC[C@H](C)O4)nc(=O)c2c1 [Compound 6a]	80.6 ± 5 µM	> 119 µM
CC(C)OC(=O)c1cc([N+](=O)[O-])c2sc(N3CCC4(CC3)OC[C@H](C)O4)nc(=O)c2c1 [Compound 6c]	> 111 µM	> 111 µM
C[C@H]1COC2(CCN(c3nc(=O)c4cc(C(=O)N(C)C)cc([N+](=O)[O-])c4s3)CC2)O1 [Compound 7c]	> 115 µM	> 115 µM
CON(C)C(=O)c1cc([N+](=O)[O-])c2sc(N3CCC4(CC3)OC[C@H](C)O4)nc(=O)c2c1 [Compound 7f]	98.5 ± 3.3 µM	> 111 µM
C[C@H]1COC2(CCN(c3nc(=O)c4cc(C(=O)O)cc([N+](=O)[O-])c4s3)CC2)O1 [Compound 8]	> 123 µM	> 123 µM
C[C@H]1COC2(CCN(c3nc(=O)c4cc(C#N)cc([N+](=O)[O-])c4s3)CC2)O1 [Compound 9]	49.9 ± 4.1 µM	> 129 µM
C[C@H]1COC2(CCN(c3nc(=O)c4cc(I)cc([N+](=O)[O-])c4s3)CC2)O1 [Compound 10]	> 102 µM	> 102 µM
C[C@H]1COC2(CCN(c3nc(=O)c4cc(Br)cc([N+](=O)[O-])c4s3)CC2)O1 [Compound 11]	> 113 µM	> 113 µM
C[C@H]1COC2(CCN(c3nc(=O)c4cccc([N+](=O)[O-])c4s3)CC2)O1 [Compound 23]	> 137 µM	> 138 µM
